One assay deals with MOLT-4 cells. Briefly: MOLT-4 cell viability using MTT assay. Type of assay: cell-based. As to conditions: Homo sapiens, MOLT-4, 48 h, 48 h exposure. The procedure: MTT colorimetric assay is based on the mitochondrial reduction of tetrazolium salt by living cells.
Cells were cultured at 37° C. in a humidified atmosphere containing 5% CO2. […] At the end of incubation time, 15 μL of MTT solution (5 mg/ml) were added per well and the cells were incubated for another 4 h. […] IC50s were calculated using standard four-parametric curve fitting.

The subject of another assay is H146 cells. As to the kind of experiment: H146 cell viability using MTT assay. Type of assay: cell-based. Particulars: Homo sapiens, NCI-H146, 48 h exposure. Here is the method:
MTT colorimetric assay is based on the mitochondrial reduction of tetrazolium salt by living cells. The viable cell number is proportional to the production of formazan salts, which can be read spectrophotometrically at 540 nm.
MOLT-4 and H146 cells were purchased from ATCC and cultivated in RPMI 1640 supplemented with 10% heat inactivated fetal bovine serum, penicillin (100 IU/ml), streptomycin (100 μg/ml) and L-glutamine (2 mM). Cells were cultured at 37° C. in a humidified atmosphere containing 5% CO2. Cells were seeded in 96 microwell plates (150p per well) and exposed to the compounds for 48 h (3.16 fold serially diluted; 9 concentrations each, triplicates). At the end of incubation time, 15 μL of MTT solution (5 mg/ml) were added per well and the cells were incubated for another 4 h. Then, 100 μL of 10% Sodium Dodecyl Sulfate (SDS)/HCl 10 mM were added per well and the plate was incubated overnight, before measurement of optical density at 540 nm. IC50s were calculated using standard four-parametric curve fitting.
(In general: Tetrazolium dyes change colour on reduction, which living cells bring about.)

For assay [1], the target named is His-His-(EK)-hsBCLXL(2-197)[N197C] (Homo sapiens (Human), UniProt Q07817, N197C). Briefly: Fluorescence quenching assay. Type of assay: binding. As to conditions: 1 nM Cy5-labelled protein, 400 nM PUMA peptide, 2 hours at 23° C.; KI determined from IC50. The method, boiled down: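 Cy5-labelled BCL-xL (1 nM) with TQ5WS quencher-labelled PUMA peptide (400 nM); displacement by compound (11-point dilution) raises fluorescence. Buffer 10 mM HEPES, 150 mM NaCl, 0.05% Tween 20, pH 7.4, 5% DMSO; 2 h at 23° C, Ex 620/Em 680 nm. Ki derived from IC50.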
His-His-(EK)-hsBCLXL(2-197)[N197C], sequence (Q07817 2-197 N197C): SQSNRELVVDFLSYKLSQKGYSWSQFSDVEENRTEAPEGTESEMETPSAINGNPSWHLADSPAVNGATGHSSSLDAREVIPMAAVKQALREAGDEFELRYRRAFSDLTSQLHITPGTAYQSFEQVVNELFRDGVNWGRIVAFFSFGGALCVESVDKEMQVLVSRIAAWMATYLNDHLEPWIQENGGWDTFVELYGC

As for `Cc1c(Nc2nc3ccccc3s2)nnc2c1CCCN2c1nc(C(=O)O)c(CCCOc2ccc(CCCN3CCOCC3)cc2F)s1` [Example 70, 2-[3-(1,3-Benzothiazol-2-ylamino)-4-methyl-6,7-dihydro-5H-pyrido[2,3-c]pyridazin-8-yl]-5-[3-[2-fluoro-4-(3-morpholinopropyl)phenoxy]propyl]thiazole-4-carboxylic acid], the IC50 in the assay with MOLT-4 cells is 3.08 nM; in the assay with H146 cells, 16.9 nM. In addition, the Ki in assay [1] was determined as 0.017 nM.
Regarding `CNCCc1ccc(OCCCc2sc(N3CCCc4c3nnc(Nc3nc5ccccc5s3)c4C)nc2C(=O)O)c(F)c1` [Example 64, 2-{3-[(1,3-Benzothiazol-2-yl)amino]-4-methyl-5H,6H,7H,8H-pyrido[2,3-c]pyridazin-8-yl}-5-(3-{2-fluoro-4-[2-(methylamino)ethyl]phenoxy}propyl)-1,3-thiazole-4-carboxylic acid], the IC50 worked out at 30.5 nM in the assay with MOLT-4 cells and 11.8 nM in the assay with H146 cells. Besides, in assay [1], the Ki was found to be 0.0052 nM.
Consider `Cc1c(Nc2nc3ccccc3s2)nnc2c1CCCN2c1nc(C(=O)O)c(CCCOc2ccc(C#CCN(C)C)cc2C(F)(F)F)s1` [Example 40, 2-{3-[(1,3-Benzothiazol-2-yl)amino]-4-methyl-5H,6H,7H,8H-pyrido[2,3-c]pyridazin-8-yl}-5-(3-{4-[3-(dimethylamino)prop-1-yn-1-yl]-2-(trifluoromethyl)phenoxy}propyl)-1,3-thiazole-4-carboxylic acid], for which the IC50 in the assay on MOLT-4 cells worked out at 8.16 nM; in the assay on H146 cells, 20.8 nM. In assay [1], the inhibition constant (Ki) stood at 0.057 nM.
In the case of `Cc1c(Nc2nc3ccccc3s2)nnc2c1CCCN2c1nc(C(=O)O)c(CCCOc2ccc(C#CCN3CCOCC3)cc2F)s1` [Example 47, 2-[3-(1,3-Benzothiazol-2-ylamino)-4-methyl-6,7-dihydro-5H-pyrido[2,3-c]pyridazin-8-yl]-5-[3-[2-fluoro-4-(3-morpholinoprop-1-ynyl)phenoxy]propyl]thiazole-4-carboxylic acid], the IC50 in the assay on MOLT-4 cells came out at 0.957 nM; in the assay with H146 cells, 7.31 nM. The Ki in assay [1] was determined as 0.0089 nM.
`Cc1c(Nc2nc3ccccc3s2)nnc2c1CCCN2c1nc(C(=O)O)c(CCCOc2ccc(C#CCN3CCCCC3)cc2F)s1` [Example 46, 2-[3-(1,3-Benzothiazol-2-ylamino)-4-methyl-6,7-dihydro-5H-pyrido[2,3-c]pyridazin-8-yl]-5-[3-[2-fluoro-4-[3-(1-piperidyl)prop-1-ynyl]phenoxy]propyl]thiazole-4-carboxylic acid]: the values for the IC50 in the assay with MOLT-4 cells and with H146 cells were 1.2 nM and 11.1 nM, respectively. Also, the inhibitory constant (Ki) in assay [1] came to 0.015 nM.
As for `Cc1c(Nc2nc3ccccc3s2)nnc2c1CCCN2c1nc(C(=O)O)c(CCCOc2ccc(C#CC(C)N3CCCC3)cc2F)s1` (stereo not shown) [Example 43, 2-[3-(1,3-Benzothiazol-2-ylamino)-4-methyl-6,7-dihydro-5H-pyrido[2,3-c]pyridazin-8-yl]-5-[3-[2-fluoro-4-(3-pyrrolidin-1-ylbut-1-ynyl)phenoxy]propyl]thiazole-4-carboxylic acid], the IC50 in the assay on MOLT-4 cells came out at 1.71 nM; with H146 cells it was 11.7 nM. For the same compound, in assay [1], the Ki stood at 0.0031 nM.
Take `Cc1c(Nc2nc3ccccc3s2)nnc2c1CCCN2c1nc(C(=O)O)c(CCCOc2ccc(C#CCN3CCC(N4CCCCC4)CC3)cc2F)s1` [Example 57, 2-[3-(1,3-Benzothiazol-2-ylamino)-4-methyl-6,7-dihydro-5H-pyrido[2,3-c]pyridazin-8-yl]-5-[3-[2-fluoro-4-[3-[4-(1-piperidyl)-1-piperidyl]prop-1-ynyl]phenoxy]propyl]thiazole-4-carboxylic acid]: the IC50 in the assay on MOLT-4 cells was 0.592 nM; in the assay on H146 cells it was 5.54 nM. In assay [1], the Ki was determined as 0.003 nM.
Take `Cc1c(Nc2nc3ccccc3s2)nnc2c1CCCN2c1nc(C(=O)O)c(CCCOc2ccc(CCN(C)C)cc2F)s1` [Example 53, 2-{3-[(1,3-Benzothiazol-2-yl)amino]-4-methyl-5H,6H,7H,8H-pyrido[2,3-c]pyridazin-8-yl}-5-(3-{4-[2-(dimethylamino)ethyl]-2-fluorophenoxy}propyl)-1,3-thiazole-4-carboxylic acid]: the figures for the IC50 with MOLT-4 cells and in the assay on H146 cells were 9.74 nM and 14.9 nM, respectively. In assay [1], the Ki is 0.0066 nM.
Take `Cc1c(Nc2nc3ccccc3s2)nnc2c1CCCN2c1nc(C(=O)O)c(CCCOc2ccc(CCCCN(C)C)cc2F)s1` [Example 62, 2-{3-[(1,3-Benzothiazol-2-yl)amino]-4-methyl-5H,6H,7H,8H-pyrido[2,3-c]pyridazin-8-yl}-5-(3-{4-[4-(dimethylamino)butyl]-2-fluorophenoxy}propyl)-1,3-thiazole-4-carboxylic acid]: the IC50 worked out at 20.2 nM with MOLT-4 cells and 69 nM in the assay on H146 cells. Moreover, the inhibition constant (Ki) in assay [1] worked out at 0.0034 nM.
`Cc1c(Nc2nc3ccccc3s2)nnc2c1CCN2c1nc(C(=O)O)cs1` [Example 11, 2-{3-[(1,3-Benzothiazol-2-yl)amino]-4-methyl-5H,6H,7H-pyrrolo[2,3-c]pyridazin-7-yl}-1,3-thiazole-4-carboxylic acid]: the IC50 with MOLT-4 cells came to 2430 nM; with H146 cells, 6360 nM.
On to `Cc1c(Nc2nc3ccccc3s2)nnc2c1CCCN2c1nc(C(=O)O)c(CCCOc2ccc(C#CCN3C[C@@H]4[C@H](C3)C4(F)F)cc2F)s1` [Example 63, 2-[3-(1,3-Benzothiazol-2-ylamino)-4-methyl-6,7-dihydro-5H-pyrido[2,3-c]pyridazin-8-yl]-5-[3-[4-[3-[(1S,5R)-6,6-difluoro-3-azabicyclo[3.1.0]hexan-3-yl]prop-1-ynyl]-2-fluoro-phenoxy]propyl]thiazole-4-carboxylic acid], for which, in the assay with H146 cells, it took 20.2 nM to reach half-maximal inhibition (IC50). Further, in assay [1], the Ki worked out at 0.081 nM.
For the compound `Cc1c(Nc2nc3ccccc3s2)nnc2c1CCCN2c1ccc(-c2cnn(CC34CC5(C)CC(C)(C3)CC(OCCN(C)C)(C5)C4)c2C)c(C(=O)O)n1` [Example 95, 6-{3-[(1,3-benzothiazol-2-yl)amino]-4-methyl-6,7-dihydropyrido[2,3-c]pyridazin-8(5H)-yl}-3-[1-({3-[2-(dimethylamino)ethoxy]-5,7-dimethyladamantan-1-yl}methyl)-5-methyl-1H-pyrazol-4-yl]pyridine-2-carboxylic acid], the IC50 in the assay with MOLT-4 cells stood at 0.205 nM. The Ki in assay [1] stood at 0.0056 nM.
As for `Cc1c(Nc2nc3ccccc3s2)nnc2c1CCCN2c1ccc(-c2cnn(CC34CC5(C)CC(C)(C3)CC(OCCN3CCN(C)CC3)(C5)C4)c2C)c(C(=O)O)n1` [Example 128, 6-[3-(1,3-benzothiazol-2-ylamino)-4-methyl-6,7-dihydro-5H-pyrido[2,3-c]pyridazin-8-yl]-3-[1-[[3,5-dimethyl-7-[2-(4-methylpiperazin-1-yl)ethoxy]-1-adamantyl]methyl]-5-methyl-pyrazol-4-yl]pyridine-2-carboxylic acid], 0.284 nM corresponded to half-maximal inhibition in the assay on MOLT-4 cells (IC50). Moreover, in assay [1], the Ki is 0.0018 nM.
`Cc1c(Nc2nc3ccccc3s2)nnc2c1CCCN2c1nc(C(=O)O)c(CCCOc2ccc(C#CCNCCCO)cc2F)s1` [Example 147, 2-[3-(1,3-benzothiazol-2-ylamino)-4-methyl-6,7-dihydro-5H-pyrido[2,3-c]pyridazin-8-yl]-5-[3-[2-fluoro-4-[3-(3-hydroxypropylamino)prop-1-ynyl]phenoxy]propyl]thiazole-4-carboxylic acid]: in the assay with MOLT-4 cells, the concentration for half-maximal inhibition (IC50) was 0.852 nM. The Ki in assay [1] stood at 0.0046 nM.

One may read the IC50 as the concentration that gives 50% inhibition. As a reminder, the Ki is the dissociation constant of the complex between target and ligand, obtained from inhibition or displacement.

The values above are taken from patent US12570648B2, “6,7-dihydro-5H-pyrido[2,3-c]pyridazine derivatives and related compounds as Bcl-xL protein inhibitors and pro-apoptotic agents for treating cancer” (LES LABORATOIRES SERVIER, priority 2019, dated 2026).
